Assay results reported in PubChem BioAssay (NCI).
Values joined by “and” are separate entries in the source; they are usually repeats but may differ in a detail not shown here. Equal entries are not always repeated.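 Each compound was tested at five concentrations against cells in 96-well plates for 48 hours. The concentration for 50% growth inhibition is given as GI50. TGI is the concentration that stops growth completely.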

How the values were obtained:
Experiment in all cases: NCI tumour cell line growth inhibition, 48 h
NCI-H226 lung = test system: NCI-H226 lung
OVCAR-4 ovarian = test system: OVCAR-4 ovarian
SF-268 CNS = test system: SF-268 CNS
OVCAR-5 ovarian = test system: OVCAR-5 ovarian
786-0 renal = test system: 786-0 renal
HT29 colon = test system: HT29 colon
UACC-257 melanoma = test system: UACC-257 melanoma
SK-MEL-2 melanoma = test system: SK-MEL-2 melanoma
NCI/ADR-RES ovarian = test system: NCI/ADR-RES ovarian
DU-145 prostate = test system: DU-145 prostate

Row | SMILES | TGI (NCI-H226 lung) | TGI (OVCAR-4 ovarian) [µM] | TGI (SF-268 CNS) | TGI (OVCAR-5 ovarian) [µM] | TGI (786-0 renal) | TGI (HT29 colon) | TGI (UACC-257 melanoma) | TGI (SK-MEL-2 melanoma) | GI50 (NCI/ADR-RES ovarian) [µM] | TGI (NCI/ADR-RES ovarian) [µM] | GI50 (NCI-H226 lung) [µM] | GI50 (OVCAR-4 ovarian) | GI50 (SF-268 CNS) [µM] | GI50 (786-0 renal) | GI50 (HT29 colon) [µM] | GI50 (DU-145 prostate) [µM] | TGI (DU-145 prostate) [µM] | GI50 (SK-MEL-2 melanoma) | GI50 (OVCAR-5 ovarian) [µM] | GI50 (UACC-257 melanoma)
1 | COc1ccc(C(C2=C(O)CC(C)OC2=O)C2=C(O)CC(C)OC2=O)cc1 (configuration not stated) | > 100 µM | > 100 | > 100 µM | > 100 | > 100 µM | > 100 µM | > 100 µM | > 100 µM | – | – | – | – | – | – | – | – | – | – | – | –
2 | COc1cccc(N2CC(O)=C(c3nc4ccccc4s3)C2=N)c1 | > 100 µM | > 100 | > 94.5 µM | > 95 | 37.1 µM | > 39.3 µM | – | > 100 µM | 0.286 | > 23.2 | 7.21 | 6.19 µM | 1.51 | 0.363 µM | 0.252 | 1.75 | > 100 | 7.14 µM | – | –
3 | CCO/C=C\C12CCCC1NC(c1ccccc1)(c1ccccc1)O2 (configuration not stated) | > 100 µM | > 100 | > 100 µM | 37 | > 100 µM | 57.8 µM | 85.5 µM | 45.7 µM | – | – | – | – | – | – | – | – | – | – | – | –
4 | Cc1[nH]nc(C(F)(F)F)c1Cc1sc2c(c1C(=O)N1C[C@](C)(O)CO1)c(=O)n(C)c(=O)n2C(C)C | > 100 µM | > 100 | > 100 µM | > 100 | > 100 µM | > 100 µM | – | > 100 µM | > 100 | > 100 | > 100 | > 100 µM | > 100 | > 100 µM | > 100 | > 100 | > 100 | > 100 µM | > 100 | –
5 | OC1OCC(COc2cc(Cl)c(Cl)cc2Cl)OC1O (configuration not stated) | > 100 µM | > 100 | > 100 µM | > 100 | > 100 µM | > 100 µM | > 100 µM | – | – | – | – | – | – | – | – | – | – | – | – | –
6 | NC(=O)NNC/C(Cl)=C(\Cl)C(=O)O | > 100 µM | > 100 | > 100 µM | > 100 | > 100 µM | > 100 µM | > 100 µM | > 100 µM | – | – | – | – | – | – | – | – | – | – | – | –
7 | [N-]=[N+]=C(C(=O)CN1CCCC1=O)S(=O)(=O)c1ccccc1 | > 100 µM | – | > 100 µM | > 100 | > 100 µM | > 100 µM | > 100 µM | > 100 µM | – | > 100 | – | – | – | – | – | – | > 100 | – | – | –
8 | CCOC(=O)C1=C(Nc2ccc(OC)cc2)C(N)=NC1=N | – | – | > 100 µM | > 100 | > 100 µM | > 100 µM | > 100 µM | > 100 µM | 3.38 | > 100 | – | – | 7.87 | 5.04 µM | 2.9 | 3.49 | > 100 | 8.03 µM | 5.09 | > 100 µM
9 | COc1cc(C2c3cc4c(cc3[C@@H](NC3CCN(Cc5ccccc5)CC3)C3COC(=O)[C@H]23)OCO4)cc(OC)c1O (some centres not stated) | 0.101 µM and 0.0535 µM | – | 1.98 µM and 0.584 µM | 1.51 | 0.668 µM and 0.221 µM | 1.93 µM and 0.41 µM | 11.9 µM and 2.12 µM | 2.77 µM and 0.496 µM | – | – | – | 0.209 µM and 1.12 µM | – | 0.161 µM and 0.0333 µM | – | – | – | 1.05 µM and 0.239 µM | – | 1.42 µM and 0.256 µM
10 | O=C(NC1CCC[C@H]1OC(=O)c1ccccc1)c1ccccc1 (some centres not stated) | 96.1 µM | > 100 | > 100 µM | > 100 | > 100 µM | > 100 µM | > 100 µM | > 100 µM | – | – | – | – | – | – | – | – | – | – | – | –
11 | O=C(Nc1ccc(Br)cc1)C(=O)C(C(=O)c1ccc(Cl)c(Cl)c1)C1OC(=O)c2ccccc21 (configuration not stated) | 20.6 µM | 50.5 | 21.4 µM | 52.3 | 30.9 µM | 45 µM | 38.9 µM | – | – | – | – | – | – | – | – | – | – | – | – | –
12 | CCCCCCCCCCCCCCNCC(OC)OC | 34.4 µM | 30.1 | 39.4 µM | 27.8 | 31 µM | 14.3 µM | 37.5 µM | 30.9 µM | – | – | – | – | – | – | – | – | – | – | – | –
13 | Nc1nc2cc(Cl)ccc2n1N | > 100 µM | – | > 100 µM | > 100 | > 100 µM | > 100 µM | > 100 µM | – | – | – | – | – | – | – | – | – | > 100 | – | – | –
14 | CC1C(c2ccccc2)N(C)C(c2ccccc2)C(C)C1(O)c1ccccc1 (configuration not stated) | > 100 µM | > 100 | > 100 µM | > 100 | > 100 µM | > 100 µM | > 100 µM | > 100 µM | – | – | – | – | – | – | – | – | – | – | – | –
15 | C/C(=N\N=C(N)N)C(CN1CCOCC1)C(c1ccccc1)c1c(O)c2ccccc2oc1=O (configuration not stated) | > 100 µM | > 100 | > 100 µM | > 100 | > 100 µM | > 100 µM | > 100 µM | > 100 µM | – | – | – | – | – | – | – | – | – | – | – | –
16 | O=C1c2ccccc2C(=O)N1CC#CCO | > 100 µM | > 100 | > 100 µM | > 100 | > 100 µM | > 100 µM | > 100 µM | > 100 µM | – | – | – | – | – | – | – | – | – | – | – | –
17 | CC1(C)CC(=O)C(CC2C(=O)CCCC2=O)C(=O)C1 | > 100 µM | > 100 | > 100 µM | > 100 | > 100 µM | > 100 µM | > 100 µM | > 100 µM | – | – | – | – | – | – | – | – | – | – | – | –
18 | O=C(CC12C3C4C1C1C2C3C41CC(=O)NO)NO (configuration not stated) | 94.3 µM | – | > 100 µM | > 100 | > 100 µM | 88.7 µM | 64.3 µM | > 100 µM | – | – | – | – | – | – | – | – | – | – | – | –
19 | C=CCC1(CN(C)C)CC/C(=C\c2ccc3c(c2)OCO3)C1=O (configuration not stated) | > 100 µM | > 100 | > 100 µM | > 100 | > 100 µM | > 100 µM | > 100 µM | > 100 µM | – | – | – | – | – | – | – | – | – | – | – | –
20 | O=C(Nc1cccc([N+](=O)[O-])c1)c1cccc(C(=O)Nc2cccc([N+](=O)[O-])c2)c1 | > 100 µM | > 100 | > 100 µM | > 100 | > 100 µM | > 100 µM | > 100 µM | – | > 100 | > 100 | > 100 | > 100 µM | 5.22 | 25.6 µM | > 100 | > 84.2 | > 100 | – | > 100 | > 100 µM
21 | CC1(c2ccc(F)cc2)C2C(=O)NC(=O)C1C(=O)NC2=O (configuration not stated) | > 100 µM | > 100 | > 100 µM | > 100 | > 100 µM | > 100 µM | > 100 µM | > 100 µM | – | – | – | – | – | – | – | – | – | – | – | –
22 | C=CC1=C(C)C(/C=c2\[nH]/c(=C/c3[nH]c(CC4NC(=O)C(C)/C4=C\C)c(C)c3CCC(=O)O)c(CC(=O)O)c2C)=NC1=O (configuration not stated) | > 100 µM | > 100 | > 100 µM | > 100 | > 100 µM | > 100 µM | > 100 µM | > 100 µM | – | – | – | – | – | – | – | – | – | – | – | –
23 | Cc1cc(N(CCC#N)S(=O)(=O)c2ccccc2)ccc1C=Nc1ccc(C(=O)O)cc1 | 40.7 µM | 18.6 | > 60.7 µM | 38.7 | 16.1 µM | 45.6 µM | 30 µM | 22.3 µM | – | – | – | – | – | – | – | – | > 100 | – | – | –
